In patent US7795208B2, “Methods of using deacetylase inhibitors to promote cell differentiation and regeneration” (The Salk Institute for Biological Study, priority 2001, dated 2010):
“Also recorded” adds a separate entry of the source.

What was measured:
Format in all cases: cell-based, mouse
[1] = tested on: 4RE-luc, MEF2-luc, MCK-luc; assay: Luciferase assay of transiently transfected myogenic reporters in skeletal myoblasts
Description: (§1) Mouse muscle myoblast C2C12 cells (obtained from the American Type Culture Collection, ATCC CRL-1772) and CC42 cells (from Dr. Kenneth Walsh, Tufts University School of Medicine) were cultured in DMEM supplemented with 20% fetal bovine serum, 2 mM glutamine and 1× kanamycin (growth medium, GM). Cellular differentiation was induced with DMEM supplemented with 2% horse serum and 1× insulin, transferring, selenium (Life Technologies). Human skeletal myocytes (CC-2561) were purchased from Clonetics. Stable C2C12 cell lines with integrated reporters are described in Wu, Z., et al., Mol Cell Biol 20:3951-64 (2000). The MCK-luc, 4RE-luc, MEF2 reporter constructs have been described in Puri, P. L., et al., EMBO Journal 16:369-83 (1997a) and Sartorelli, V., et al., Molecular & Cellular Biology 17:1010-26 (1997). The E2F-luc plasmid is described in Helin, K., et al., Genes Dev 7:1850-61 (1993). The MLC-lacZ-nls plasmid is described in Wu, et al. (2000). […] Following transfections, luciferase activity was determined using the Dual-Luciferase reporter assay system (Promega) on a microtiter luminescence detection system (MLX, Dynex).
C2C12 and CC42 cells were exposed to sodium butyrate 5 mM (Sigma), trichostatin A 50 nM (Upstate Biotechnologies), or valproic acid 10 mM (Sigma) for 24 hours in GM (GM regimen). TSA was removed and the cells cultured in DM for 48 hrs before being analyzed. […]

E2F-responsive construct = assay: Luciferase assay of E2F-responsive construct; settings: cells exposed to DI in DM
Description: as §1, with “FIGS. 2A-D are graphs showing DI activation muscle-specific transcription in skeletal muscle cells. […] Luciferase activity was measured in non-treated cells cultured in either GM (GM) or DM (DM). […] The reporter activity was also analyzed in cells differentiated in the absence of TSA (DM) Mouse” for “Mouse”, “[…].,” for “Helin, K.,”, “(1993).” for “(1993). The MLC-lacZ-nls plasmid is described in Wu, et al. (2000).”

MyoD = assay: In vivo acetylation assay (3H-acetate incorporation); settings: myoblasts cultured in GM
Description: In FIG. 3A, MyoD acetylation in undifferentiated C2C12 myoblasts (GM) untreated (−) or treated with either sodium butyrate (Butyr.) or TSA and in differentiated myotubes (abbrev. DM in FIG. 3A, but not to be confused with the abbreviation for “differentiation medium” as used elsewhere herein) was measured by ^3H incorporation of exogenously transfected Flag-tagged MyoD following metabolic labeling with ^3H sodium acetate as described in Sartorelli, V., et al., Molecular Cell 4:725-34 (1999). […] Chromatin was immunoprecipitated with antibodies against acetyl-histone 4 (AcH4) or IgG (as a control). Purified DNA from anti-AcH4 immunoprecipitated chromatin was analyzed by PCR using primers recognizing GAPDH promoter and MCK enhancer as described in Example 1. Unbound DNA (lanes 2 and 3, top panel) is an aliquot of chromatin not immunoprecipitated by anti-AcH4 antibody and amplified with GAPDH primers. Input (lanes 2 and 3, bottom panel) is an aliquot (1%) of the chromatin analyzed before the immunoprecipitation to quantify the amount of DNA present in different samples. […] Myoblasts were then formaldehyde cross-linked and processed.
In vivo acetylation assay was performed as described in Sartorelli, V., et al., Molecular Cell 4:725-34 (1999).
The acetylation of MyoD by ^3H-acetate incorporation in myoblasts, cultured in either the absence or presence of TSA, was evaluated. […]

MLC3F-lacZ-nls construct = assay: β-Galactosidase assay of cells transfected with MLC3F-lacZ-nls; settings: transfected cells exposed in GM, then DM 48 hours; vs non-treated cells
Description: FIGS. 4A-C illustrate that embryos exposed to DI display enhanced somitogenesis and increased muscle gene expression. […] Cells were then exposed to TSA (50 nM) in GM and subsequently switched to DM for 48 hours. Cells were stained to detect β-galactosidase activity. FIG. 4B is a picture of E 10.5 embryos derived from MLC1/3F-nLacZ transgenic mice exposed to either TSA or VPA treatment (see Example 1) and stained for 1 hour at 30° C. to detect β-galactosidase activity. […] FIG. 4C is a Western blot of extracts derived from total embryos exposed to either TSA or VPA; MHC is detected.
Cells transfected with MLC-lacZ-nls were washed twice in PBS, fixed in 4% paraformaldeheyde-PBS for 5 min, washed twice in PBS, and stained for 2-5 hrs with 5 mM potassium ferrycyanide, 5 mM potassium ferrocyanide, 2 mM MgCl2, 1 mg/ml X-gal (5-bromo-4-chloro-3-indolyl-β-D-galactoside).

Structure (SMILES): CC(/C=C/C(=O)NO)=C\[C@@H](C)C(=O)c1ccc(N(C)C)cc1 [TSA, trichostatin A]
- HDAC1-mediated inhibition of 4RE-luc ([1]; HDAC1 expression vector co-transfected): could be reversed
- transcription of transiently transfected myogenic reporter constructs ([1]; treatment in GM or in DM): stimulates transcription of the reporter constructs only when the DI inhibitors are applied to the cells cultured in GM; also recorded: activation of a transfected MCK-luc reporter
- transcription driven from an E2F-responsive construct (E2F-responsive construct): stimulated
- incorporation of 3H-acetate into transfected MyoD (MyoD): stimulated the incorporation
- β-galactosidase-positive nuclei (MLC3F-lacZ-nls construct): increased β-galactosidase-positive nuclei
